Laboratory results published in publication PMC8972196, “A Set of Experimentally Validated Decoys for the Human CC Chemokine Receptor 7 (CCR7) Obtained by Virtual Screening” (Frontiers in Pharmacology, 2022).
Read-outs that look alike come from different tables or passages of the source.

Target: T1, human CCR7 (Homo sapiens, UniProt P32248)
T1 construct: expressed in transfected cells
T1 sequence (P32248 25-378): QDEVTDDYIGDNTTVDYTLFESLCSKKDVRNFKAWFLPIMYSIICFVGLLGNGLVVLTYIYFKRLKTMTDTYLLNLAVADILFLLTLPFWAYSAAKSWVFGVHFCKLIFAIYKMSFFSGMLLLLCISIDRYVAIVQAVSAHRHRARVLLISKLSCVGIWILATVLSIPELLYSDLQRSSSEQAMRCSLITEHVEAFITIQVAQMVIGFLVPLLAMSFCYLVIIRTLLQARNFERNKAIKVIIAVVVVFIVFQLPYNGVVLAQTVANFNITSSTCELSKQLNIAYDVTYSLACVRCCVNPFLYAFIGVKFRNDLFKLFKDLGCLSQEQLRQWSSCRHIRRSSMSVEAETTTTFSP
Assay: CCL19-induced calcium mobilization assay, U87.CD4 cells expressing CCR7
Type: cell-based
In short: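 Calcium mobilization was recorded in U87.CD4 cells stably carrying human CXCR2 (stimulated with CXCL8), CCR7 (stimulated with CCL19) or CCR5. Cells were plated at 20,000 cells/well, cultured overnight at 37°C in 5% CO2, and incubated 45 min at room temperature in the dark before reading.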

[1] = CCL19 induced calcium signaling, read-out: IC50 [μM] block CCL19 induced calcium signaling
[2] = classification as decoy or active on CCR7
[3] = CCL19-induced calcium signaling, read-out: IC50 [μM] block CCL19 induced calcium signaling
[4] = classification of tested compounds as decoy or active

Row | SMILES | IC50 [1] [µM] | Decoy – 0 Active – 1 [2] | IC50 [3] [µM] | Decoy – 0 Active – 1 [4] | IC50 [µM]
1 | COc1ccc(CCNC(=O)CN(c2ccc([N+](=O)[O-])cc2)S(=O)(=O)c2ccccc2)cc1 [C271, COc1ccc(cc1)CCNC(=O)CN(c2ccc(cc2)[N+](=O)[O-])S(=O)(=O)c3ccccc3] | > 50 | 0 |  |  | 
2 | Cc1ccc(S(=O)(=O)NC(C)C(c2ccccc2)N2CCOCC2)cc1 (stereo not drawn) [C264, Cc1ccc(cc1)S(=O)(=O)NC(C)C(c2ccccc2)[NH+]3CCOCC3] |  | 0 |  |  | > 50
3 | CNC(=O)c1cccc(NC(=O)c2cn(Cc3ccccn3)nn2)c1C [C100, CNC(=O)c1cccc(NC(=O)c2cn(Cc3ccccn3)nn2)c1C] |  |  | > 50 | 0 | 
4 | C[C@H](c1ccccc1)[C@@H](C)NC(=O)N[C@H]1CCN(C)C1=O [C114, C[C@@H](NC(=O)N[C@H]1CCN(C)C1=O)[C@H](C)c1ccccc1] |  |  | > 50 | 0 | 
5 | Cc1ccc(C(C)NC(=O)C(=O)Nc2cc(C(=O)N(C)C)ccc2C)o1 (stereo not drawn) [C058, Cc1ccc(C(C)NC(=O)C(=O)Nc2cc(C(=O)N(C)C)ccc2C)o1] |  |  | > 10 | 0 | 
6 | COc1c[nH]c(C(=O)NC(c2cccnc2)C(F)(F)F)cc1=O (stereo not drawn) [C213, COc1c[nH]c(C(=O)NC(c2cccnc2)C(F)(F)F)cc1=O] | > 50 | 0 |  |  | 
7 | COC(=O)c1ccccc1Nc1c(NCc2ccc(OC)cc2)c(=O)c1=O [C011, COC(=O)c1ccccc1Nc1c(NCc2ccc(OC)cc2)c(=O)c1=O] |  |  | > 50 | 0 | 
8 | COC(=O)c1ccc([C@H]2CC(=O)Nc3c2cnn3Cc2ccco2)cc1 [C158, COC(=O)c1ccc([C@H]2CC(=O)Nc3c2cnn3Cc2ccco2)cc1] |  |  | > 50 | 0 | 
9 | O=C(CCCc1c[nH]c2ccccc12)N1CCN(C(=O)CCCc2c[nH]c3ccccc23)CC1 [C209, O=C(CCCc1c[nH]c2ccccc12)N1CCN(C(=O)CCCc2c[nH]c3ccccc23)CC1] | > 50 | 0 |  |  | 
10 | OCc1ccccc1NC(=S)NCc1ccccc1 [C038, OCc1ccccc1NC(=S)NCc1ccccc1] |  |  | > 30 | 0 | 
11 | Cc1ccnc(NC(=S)NC(=O)c2cccc3ccccc23)c1 [C032, Cc1ccnc(NC(=S)NC(=O)c2cccc3ccccc23)c1] |  |  | > 30 | 0 | 
12 | CC(C)c1ccc(S(=O)(=O)N2CCN(C)CC2c2ccccc2)cc1 (stereo not drawn) [C237, CC(C)c1ccc(cc1)S(=O)(=O)N2CC[NH+](CC2c3ccccc3)C] | > 50 | 0 |  |  | 
13 | N=C(Nc1ccccc1)C(N)=Nc1ccccc1 [C068, NC(=[NH+]c1ccccc1)C(=[NH2+])Nc1ccccc1] |  |  | > 10 | 0 | 
14 | COc1ccc(CNc2c(NCc3ccc4c(c3)OCO4)c(=O)c2=O)cc1 [C012, COc1ccc(CNc2c(NCc3ccc4c(c3)OCO4)c(=O)c2=O)cc1] |  |  | > 50 | 0 | 
15 | CN(C)C(=O)c1cccc(NC(=O)NCCc2ccccn2)c1 [C076, CN(C)C(=O)c1cccc(NC(=O)NCCc2ccccn2)c1] |  |  | > 10 | 0 | 
16 | CN(C)C(=O)c1cc(NCC(=O)NCc2ccco2)ccc1F [C064, CN(C)C(=O)c1cc(NCC(=O)NCc2ccco2)ccc1F] |  |  | > 10 | 0 | 
17 | CCc1ccc(C(NC(=O)C(=O)Nc2cccnc2C)C(C)(C)C)o1 (stereo not drawn) [C069, CCc1ccc(C(NC(=O)C(=O)Nc2cccnc2C)C(C)(C)C)o1] |  |  | > 10 | 0 | 
18 | COC(=O)c1ccccc1Nc1c(N2CCNC(=O)C2)c(=O)c1=O [C005, COC(=O)c1ccccc1Nc1c(N2CCNC(=O)C2)c(=O)c1=O] |  |  | > 50 | 0 | 
19 | CN(C)S(=O)(=O)c1ccc(-c2nnc(C(=O)NCc3ccccc3)o2)cc1 [C089, CN(C)S(=O)(=O)c1ccc(-c2nnc(C(=O)NCc3ccccc3)o2)cc1] |  |  | > 50 | 0 | 

Further lines, with some results ahead:

Row | IC50 [1] [µM] | Decoy – 0 Active – 1 [2] | IC50 [3] [µM] | Decoy – 0 Active – 1 [4] | SMILES | IC50 [µM]
20 | > 50 | 0 |  |  | O=C(NCC(O)(c1ccccc1)C(F)(F)F)c1cc(=O)c2ccccc2o1 (stereo not drawn) [C208, O=C(NCC(O)(c1ccccc1)C(F)(F)F)c1cc(=O)c2ccccc2o1] | 
21 | > 50 | 0 |  |  | O=C(CN1CCCC1Cc1ccccc1Cl)NC1CCCCNC1=O (stereo not drawn) [C284, O=C(CN1CCCC1Cc1ccccc1Cl)NC1CCCCNC1=O] | 
22 | > 50 | 0 |  |  | CN(Cc1csc(-c2ccccc2)n1)C(=O)c1c[nH]c(=O)c(Cl)c1 [C232, CN(Cc1csc(-c2ccccc2)n1)C(=O)c1c[nH]c(=O)c(Cl)c1] | 
23 | > 50 | 0 |  |  | Cc1ccc2c(CCNc3nc4[nH]ncc4c(=O)[nH]3)cn(C)c2c1 [C206, Cc1ccc2c(CCNc3nc4[nH]ncc4c(=O)[nH]3)cn(C)c2c1] | 
24 |  |  | > 50 | 0 | O=S1(=O)C[C@H](Nc2ccc(Cl)cc2)[C@H](NCc2ccccc2)C1 [C122, O=S1(=O)C[C@@H](NCc2ccccc2)[C@@H](Nc2ccc(Cl)cc2)C1] | 
25 | > 50 | 0 |  |  | COc1ccc(S(=O)(=O)Nc2ccccc2C(=O)N2CCOCC2)cc1Br [C251, COc1ccc(cc1Br)S(=O)(=O)Nc2ccccc2C(=O)N3CCOCC3] | 
26 |  |  | > 50 | 0 | CC(C)[C@@H](NC(=O)c1cccc(NC(=O)C2CC2)c1)c1ccccn1 [C155, CC(C)[C@@H](NC(=O)c1cccc(NC(=O)C2CC2)c1)c1ccccn1] | 
27 |  |  | > 50 | 0 | CC(=O)N[C@@H](Cc1ccccc1)C(=O)N[C@H](C)c1ccccc1 [C144, CC(=O)N[C@@H](Cc1ccccc1)C(=O)N[C@H](C)c1ccccc1] | 
28 | > 50 | 0 |  |  | CC(C)Oc1ccc2ccccc2c1CNC(=O)N1CCC(C)(O)C1 (stereo not drawn) [C169, CC(C)Oc1ccc2ccccc2c1CNC(=O)N1CCC(C)(O)C1] | 
29 | > 50 | 0 |  |  | CC1CN(S(=O)(=O)c2ccc(CCC(=O)O)cc2)c2ccccc21 (stereo not drawn) [C268, CC1CN(c2c1cccc2)S(=O)(=O)c3ccc(cc3)CCC(=O)[O-]] | 
30 |  |  | > 50 | 0 | C[S@+]([O-])c1cccc(NC(=O)NCC2(c3cccc(F)c3)CC2)c1 [C130, C[S@](=O)c1cccc(NC(=O)NCC2(c3cccc(F)c3)CC2)c1] | 
31 |  |  | > 50 | 0 | CC[C@@H](NC1=NS(=O)(=O)c2ccccc21)C(=O)NOC [C156, CC[C@@H](NC1=NS(=O)(=O)c2ccccc21)C(=O)NOC] | 
32 | > 50 | 0 |  |  | Cc1cc(C)cc(Nc2c(-c3cccc(O)c3)nc3ncccn23)c1 [C182, Cc1cc(C)cc(Nc2c(-c3cccc(O)c3)nc3ncccn23)c1] | 
33 |  |  | > 50 | 0 | CC[C@@H](NC(=O)CCn1ccccc1=O)c1cc(F)ccc1F [C132, CC[C@@H](NC(=O)CCn1ccccc1=O)c1cc(F)ccc1F] | 
34 | > 50 | 0 |  |  | CCC(NS(=O)(=O)c1ccc(C)cc1)c1ccccc1OCC(=O)NC (stereo not drawn) [C249, CCC(c1ccccc1OCC(=O)NC)NS(=O)(=O)c2ccc(cc2)C] | 
35 | > 50 | 0 |  |  | O=C(NCC(=O)N1CCCC1c1ccc2c(c1)OCO2)c1cc2ccccc2[nH]1 (stereo not drawn) [C285, O=C(NCC(=O)N1CCCC1c1ccc2c(c1)OCO2)c1cc2ccccc2[nH]1] | 
36 | > 50 | 0 |  |  | Cc1ccc(C(=O)NC2CCC(=O)NC2C)cc1N1CCOCC1 (stereo not drawn) [C211, Cc1ccc(C(=O)NC2CCC(=O)NC2C)cc1N1CCOCC1] | 
